Laboratory results as given in paper PMC12250302, “Synthesis, Antimicrobial Activities, and Model of Action of Novel Tetralone Derivatives Containing Aminoguanidinium Moiety” (International Journal of Molecular Sciences, 2025).
In brackets after ≈: the same amount, converted by molar mass. Read-outs that look alike come from different tables or passages of the source. Blank lines part the entries; values can stand above or below the compound they belong to.

Tests used:
Assay in all cases: MIC and MBC testing, broth microdilution
[1] = tested on: K. pneumoniae ATCC 700603; assay type: cell-based, Klebsiella pneumoniae; settings: for MBC: ATCC700603, read-out: MBC
Text: (§1) The minimum inhibitory concentrations (MICs) and minimum bactericidal concentrations (MBCs) of the synthesized compounds effective against ESKAPE strains, S. aureus clinical isolates, and MRSA were investigated by the broth dilution method. Levofloxacin is a broad-spectrum antibacterial agent that is widely used in the treatment of ESKAPE infections. Therefore, levofloxacin was selected as the positive control for the preliminary activity screening. DMSO (0.1%) was selected as the negative control.
(§2) The minimum inhibitory concentration (MIC) of all synthesized compounds was tested by the broth microdilution method. In brief, compounds dissolved in DMSO were diluted twice continuously in a 96-well plate with MH broth. The ESKAPE pathogens (E. coli ATCC 25922, S. aureus ATCC 29213, K. pneumoniae ATCC 700603, A. baumannii ATCC 19606, P. aeruginosa ATCC 27853, and E. faecium ATCC 35667), clinical S. aureus isolates (LMY45, LMY46, LMY47, and LMY48) and methicillin-resistant Staphylococcus aureus (MRSA-1 and MRSA-2) were cultured in MH broth to logarithmic growth phase and then diluted to 1 × 10^6 CFU/mL in MH broth. Subsequently, the diluted bacterial solution was mixed with the diluted compound solution in a 96-well plate and incubated at 37 °C for a duration of 18 h. The MIC of the compounds was recorded as the lowest concentration at which no visible growth was observed. […] Each concentration was replicated thrice.

[2] = tested on: E. faecium ATCC 35667; assay type: cell-based, Enterococcus faecium; settings: E. faecium ATCC 35667; for MIC: 18 h
Text: as §1, §2

[3] = tested on: P. aeruginosa ATCC 27853; assay type: cell-based, Pseudomonas aeruginosa
Text: as §1, §2

[4] = tested on: S. aureus ATCC 29213; assay type: cell-based, Staphylococcus aureus; settings: S. aureus ATCC 29213; for MIC: 18 h
Text: as §1, §2

[5] = tested on: E. coli ATCC 25922; assay type: cell-based, Escherichia coli
Text: as §1, §2

[6] = tested on: A. baumannii ATCC 19606; assay type: cell-based, Acinetobacter baumannii
Text: as §1, §2

[7] = tested on: clinical S. aureus isolate LMY48; assay type: cell-based, Staphylococcus aureus; settings: LMY48; for MIC: 18 h
Procedure: (§3) Furthermore, the MBC values of the compounds were detected.
as §2, with “h.” for “h. The MIC of the compounds was recorded as the lowest concentration at which no visible growth was observed.”

[8] = tested on: clinical S. aureus isolate LMY46; assay type: cell-based, Staphylococcus aureus; settings: LMY46; for MIC: 18 h
Procedure: as §3
as §2, with “h.” for “h. The MIC of the compounds was recorded as the lowest concentration at which no visible growth was observed.”

[9] = tested on: MRSA-2; assay type: cell-based, Staphylococcus aureus; settings: MRSA-2; for MIC: 18 h
Procedure: as §3
as §2, with “h.” for “h. The MIC of the compounds was recorded as the lowest concentration at which no visible growth was observed.”

[10] = tested on: MRSA-1; assay type: cell-based, Staphylococcus aureus; settings: MRSA-1; for MIC: 18 h
Procedure: as §3
as §2, with “h.” for “h. The MIC of the compounds was recorded as the lowest concentration at which no visible growth was observed.”

[11] = tested on: clinical S. aureus isolate LMY45; assay type: cell-based, Staphylococcus aureus; settings: LMY45; for MIC: 18 h
Procedure: as §3
as §2, with “h.” for “h. The MIC of the compounds was recorded as the lowest concentration at which no visible growth was observed.”

[12] = tested on: clinical S. aureus isolate LMY47; assay type: cell-based, Staphylococcus aureus; settings: LMY47; for MIC: 18 h
Procedure: as §3
as §2, with “h.” for “h. The MIC of the compounds was recorded as the lowest concentration at which no visible growth was observed.”

[13] = Klebsiella pneumoniae, ATCC700603, 18 h, read-out: MIC
[14] = Enterococcus faecium, ATCC35667, read-out: MIC
[15] = Enterococcus faecium, ATCC35667, read-out: MBC
[16] = Pseudomonas aeruginosa, ATCC27853, 18 h, read-out: MIC
[17] = Staphylococcus aureus, ATCC29213, read-out: MIC
[18] = Staphylococcus aureus, ATCC29213, read-out: MBC
[19] = Escherichia coli, ATCC25922, 18 h, read-out: MIC
[20] = Escherichia coli, ATCC25922, read-out: MBC
[21] = Acinetobacter baumannii, ATCC19606, 18 h, read-out: MIC
[22] = Acinetobacter baumannii, ATCC19606, read-out: MBC
[23] = Staphylococcus aureus, read-out: MIC
[24] = Staphylococcus aureus, read-out: MBC

Compound: [H]/N=C(\N)NN=C1CCCc2cc(OCc3c(F)cccc3F)ccc21 [Compound 1F, (E)-2-(6-((2,6-difluorobenzyl)oxy)-3,4-dihydronaphthalen-1(2H)-ylidene)hydrazine-1-carboximidamide]
MIC [1, 13]: 32 mg/L (≈ 92.9 µM)
MBC ([1]; Klebsiella pneumoniae): 32 mg/L (≈ 92.9 µM)
MIC [2, 14]: 8 mg/L (≈ 23.2 µM)
MBC [2, 15]: 16 mg/L (≈ 46.5 µM)
MIC [3, 16]: > 32 mg/L
MIC [4, 17]: 4 mg/L (≈ 11.6 µM)
MBC [4, 18]: 16 mg/L (≈ 46.5 µM)
MIC [5, 19]: 16 mg/L (≈ 46.5 µM)
MBC [5, 20]: 16 mg/L (≈ 46.5 µM)
MIC [6, 21]: 16 mg/L (≈ 46.5 µM)
MBC [6, 22]: 16 mg/L (≈ 46.5 µM)
MIC [7, 23]: 4 mg/L (≈ 11.6 µM)
MBC [7, 24]: 16 mg/L (≈ 46.5 µM)
MIC [8, 23]: 4 mg/L (≈ 11.6 µM)
MBC [8, 24]: > 32 mg/L
MIC [9, 23]: 4 mg/L (≈ 11.6 µM)
MBC [9, 24]: 16 mg/L (≈ 46.5 µM)
MIC [10, 23]: 4 mg/L (≈ 11.6 µM)
MBC [10, 24]: 32 mg/L (≈ 92.9 µM)
MIC [11, 23]: 4 mg/L (≈ 11.6 µM)
MBC [11, 24]: 8 mg/L (≈ 23.2 µM)
MIC [12, 23]: 4 mg/L (≈ 11.6 µM)
MBC [12, 24]: 8 mg/L (≈ 23.2 µM)

Compound: (E)-2-(6-((2,4-dichlorobenzyl)oxy)-3,4-dihydro-1(2H)-naphthalenylidene)hydrazine-1-carboxamide [Compound 1O]
MIC ([1]; 18 h): >32/- µg/mL
MBC [2]: 16 mg/L
MIC [2]: 2 mg/L
MIC ([3]; 18 h): >32/- µg/mL
MBC [4]: 8 mg/L
MIC [4]: 4 mg/L
MBC [5]: 16 mg/L
MIC ([5]; 18 h): 8 mg/L
MBC [6]: 16 mg/L
MIC ([6]; 18 h): 16 mg/L
MBC [7]: 2 mg/L
MIC [7]: ≤ 1 mg/L
MBC [8]: 8 mg/L
MIC [8]: 4 mg/L
MBC [9]: 8 mg/L
MIC [9]: 2 mg/L
MBC [10]: 16 mg/L
MIC [10]: 1 mg/L
MBC [11]: 16 mg/L
MIC [11]: 2 mg/L
MBC [12]: 4 mg/L
MIC [12]: ≤ 1 mg/L

Compound: [H]/N=C(\N)NN=C1CCCc2cc(OCc3ccc(C#N)cc3)ccc21 [Compound 1V, (E)-2-(6-((4-cyanobenzyl)oxy)-3,4-dihydronaphthalen-1(2H)-ylidene)hydrazine-1-carboximidamide]
MIC [1, 13]: 32 mg/L (≈ 96 µM)
MIC [2, 14]: 16 mg/L (≈ 48 µM)
MBC [2, 15]: > 32 mg/L
MIC [3, 16]: > 32 mg/L
MIC [4, 17]: 8 mg/L (≈ 24 µM)
MBC [4, 18]: 32 mg/L (≈ 96 µM)
MIC [5, 19]: 16 mg/L (≈ 48 µM)
MBC [5, 20]: 32 mg/L (≈ 96 µM)
MIC [6, 21]: 16 mg/L (≈ 48 µM)
MBC [6, 22]: 32 mg/L (≈ 96 µM)
MIC [7, 23]: 8 mg/L (≈ 24 µM)
MBC [7, 24]: 8 mg/L (≈ 24 µM)
MIC [8, 23]: 4 mg/L (≈ 12 µM)
MBC [8, 24]: 32 mg/L (≈ 96 µM)
MIC [9, 23]: 8 mg/L (≈ 24 µM)
MBC [9, 24]: 8 mg/L (≈ 24 µM)
MIC [10, 23]: 8 mg/L (≈ 24 µM)
MBC [10, 24]: 16 mg/L (≈ 48 µM)
MIC [11, 23]: 4 mg/L (≈ 12 µM)
MBC [11, 24]: 8 mg/L (≈ 24 µM)
MIC [12, 23]: 8 mg/L (≈ 24 µM)
MBC [12, 24]: 32 mg/L (≈ 96 µM)

Further compounds by falling MIC [1, 13], results first:

MIC [1, 13]: 16 mg/L (≈ 42.5 µM)
MIC [2, 14]: 2 mg/L (≈ 5.31 µM)
MIC [3, 16]: 16 mg/L (≈ 42.5 µM)
MIC [4, 17]: 2 mg/L (≈ 5.31 µM)
MIC [5, 19]: 4 mg/L (≈ 10.6 µM)
MIC [6, 21]: 8 mg/L (≈ 21.3 µM)
MIC [7, 23]: 2 mg/L (≈ 5.31 µM)
MIC [8, 23]: 2 mg/L (≈ 5.31 µM)
MIC [9, 23]: 2 mg/L (≈ 5.31 µM)
MIC [10, 23]: 1 mg/L (≈ 2.66 µM)
MIC [11, 23]: 2 mg/L (≈ 5.31 µM)
MIC [12, 23]: 2 mg/L (≈ 5.31 µM)
Compound: [H]/N=C(\N)NN=C1CCCc2cc(OCc3ccc(C(F)(F)F)cc3)ccc21 [Compound 1J, (E)-2-(6-((4-(trifluoromethyl)benzyl)oxy)-3,4-dihydronaphthalen-1(2H)-ylidene)hydrazine-1-carboximidamide]
MBC ([1]; Klebsiella pneumoniae): 32 mg/L (≈ 85 µM)
MBC [2, 15]: 4 mg/L (≈ 10.6 µM)
MBC ([3]; Pseudomonas aeruginosa, ATCC27853, read-out: MBC): > 32 mg/L
MBC [4, 18]: 16 mg/L (≈ 42.5 µM)
MBC [5, 20]: 4 mg/L (≈ 10.6 µM)
MBC [6, 22]: 8 mg/L (≈ 21.3 µM)
MBC [7, 24]: 2 mg/L (≈ 5.31 µM)
MBC [8, 24]: 16 mg/L (≈ 42.5 µM)
MBC [9, 24]: 32 mg/L (≈ 85 µM)
MBC [10, 24]: 8 mg/L (≈ 21.3 µM)
MBC [11, 24]: 2 mg/L (≈ 5.31 µM)
MBC [12, 24]: 4 mg/L (≈ 10.6 µM)

MIC [1, 13]: 16 mg/L (≈ 46.5 µM)
MIC [2, 14]: 4 mg/L (≈ 11.6 µM)
MIC [3, 16]: 32 mg/L (≈ 92.9 µM)
MIC [4, 17]: 2 mg/L (≈ 5.81 µM)
MIC [5, 19]: 8 mg/L (≈ 23.2 µM)
MIC [6, 21]: 8 mg/L (≈ 23.2 µM)
MIC [7, 23]: 2 mg/L (≈ 5.81 µM)
MIC [8, 23]: 2 mg/L (≈ 5.81 µM)
MIC [9, 23]: 2 mg/L (≈ 5.81 µM)
MIC [10, 23]: 2 mg/L (≈ 5.81 µM)
MIC [11, 23]: 2 mg/L (≈ 5.81 µM)
MIC [12, 23]: 2 mg/L (≈ 5.81 µM)
Compound: [H]/N=C(\N)NN=C1CCCc2cc(OCc3cc(F)cc(F)c3)ccc21 [Compound 1G, (E)-2-(6-((3,5-difluorobenzyl)oxy)-3,4-dihydronaphthalen-1(2H)-ylidene)hydrazine-1-carboximidamide]
MBC ([1]; Klebsiella pneumoniae): 16 mg/L (≈ 46.5 µM)
MBC [2, 15]: 8 mg/L (≈ 23.2 µM)
MBC [4, 18]: 8 mg/L (≈ 23.2 µM)
MBC [5, 20]: 16 mg/L (≈ 46.5 µM)
MBC [6, 22]: 8 mg/L (≈ 23.2 µM)
MBC [7, 24]: 2 mg/L (≈ 5.81 µM)
MBC [8, 24]: 8 mg/L (≈ 23.2 µM)
MBC [9, 24]: 16 mg/L (≈ 46.5 µM)
MBC [10, 24]: 16 mg/L (≈ 46.5 µM)
MBC [11, 24]: 4 mg/L (≈ 11.6 µM)
MBC [12, 24]: 8 mg/L (≈ 23.2 µM)
